The subject of the data set is CCRIS mutagenicity, Ames/micronucleus/aberration tests. Put plainly: CCRIS mutagenicity studies.
[1] abbreviates: Test System: AMES SALMONELLA TYPHIMURIUM, Strain/Indicator: TA98, Metabolic Activation: NONE, Method: PREINCUBATION
[2] abbreviates: Test System: AMES SALMONELLA TYPHIMURIUM, Strain/Indicator: TA100, Metabolic Activation: NONE, Method: PREINCUBATION
Setting [3] is: Test System: AMES SALMONELLA TYPHIMURIUM, Strain/Indicator: TA1535, Metabolic Activation: NONE, Method: PREINCUBATION
Where [4] appears, read: Test System: AMES SALMONELLA TYPHIMURIUM, Strain/Indicator: TA1537, Metabolic Activation: NONE, Method: PREINCUBATION

Activity calls are given as the source filed them. No rule for the calls is given here.

Consider `CC(C)=CCC1=C(O)c2ccccc2C(=O)C1=O`, for which the mutagenic call was “inactive; negative” (Test System: AMES SALMONELLA TYPHIMURIUM, Strain/Indicator: TA97, Metabolic Activation: NONE, Method: PREINCUBATION); “inactive; negative” (Test System: AMES SALMONELLA TYPHIMURIUM, Strain/Indicator: TA97, Metabolic Activation: RAT, LIVER, S-9, PHENOBARBITAL AND 5,6-BENZOFLAVONE, Method: PREINCUBATION); “inactive; negative” (Test System: AMES SALMONELLA TYPHIMURIUM, Strain/Indicator: TA98, Metabolic Activation: HAMSTER, LIVER, S-9, AROCLOR 1254, Method: STANDARD PLATE); “inactive; negative” under setting [1]; “inactive; negative” (Test System: AMES SALMONELLA TYPHIMURIUM, Strain/Indicator: TA98, Metabolic Activation: NONE, Method: STANDARD PLATE); “inactive; negative” (Test System: AMES SALMONELLA TYPHIMURIUM, Strain/Indicator: TA98, Metabolic Activation: RAT, LIVER, S-9, AROCLOR 1254, Method: STANDARD PLATE). Also, the mutagenic call is, setting by setting: (Test System: AMES SALMONELLA TYPHIMURIUM, Strain/Indicator: TA98, Metabolic Activation: RAT, LIVER, S-9, PHENOBARBITAL AND 5,6-BENZOFLAVONE, Method: PREINCUBATION) “inactive; negative”; (Test System: AMES SALMONELLA TYPHIMURIUM, Strain/Indicator: TA100, Metabolic Activation: HAMSTER, LIVER, S-9, AROCLOR 1254, Method: STANDARD PLATE) “inactive; negative”; under setting [2], “inactive; negative”; (Test System: AMES SALMONELLA TYPHIMURIUM, Strain/Indicator: TA100, Metabolic Activation: NONE, Method: STANDARD PLATE) “inactive; negative”; (Test System: AMES SALMONELLA TYPHIMURIUM, Strain/Indicator: TA100, Metabolic Activation: RAT, LIVER, S-9, AROCLOR 1254, Method: STANDARD PLATE) “inactive; negative”; (Test System: AMES SALMONELLA TYPHIMURIUM, Strain/Indicator: TA100, Metabolic Activation: RAT, LIVER, S-9, PHENOBARBITAL AND 5,6-BENZOFLAVONE, Method: PREINCUBATION) “inactive; negative”. The mutagenic call (Test System: AMES SALMONELLA TYPHIMURIUM, Strain/Indicator: TA102, Metabolic Activation: NONE, Method: PREINCUBATION) was “inactive; negative”; the mutagenic call (Test System: AMES SALMONELLA TYPHIMURIUM, Strain/Indicator: TA102, Metabolic Activation: RAT, LIVER, S-9, PHENOBARBITAL AND 5,6-BENZOFLAVONE, Method: PREINCUBATION) was “inactive; negative”; the mutagenic call (Test System: AMES SALMONELLA TYPHIMURIUM, Strain/Indicator: TA104, Metabolic Activation: NONE, Method: PREINCUBATION) was “inactive; negative”; the mutagenic call (Test System: AMES SALMONELLA TYPHIMURIUM, Strain/Indicator: TA104, Metabolic Activation: RAT, LIVER, S-9, PHENOBARBITAL AND 5,6-BENZOFLAVONE, Method: PREINCUBATION) was “inactive; negative”; the mutagenic call (Test System: AMES SALMONELLA TYPHIMURIUM, Strain/Indicator: TA1535, Metabolic Activation: HAMSTER, LIVER, S-9, AROCLOR 1254, Method: STANDARD PLATE) is “inactive; negative”; the mutagenic call under setting [3] is “inactive; negative”. Moreover, the mutagenic call (Test System: AMES SALMONELLA TYPHIMURIUM, Strain/Indicator: TA1535, Metabolic Activation: NONE, Method: STANDARD PLATE) was “inactive; negative”; the mutagenic call (Test System: AMES SALMONELLA TYPHIMURIUM, Strain/Indicator: TA1535, Metabolic Activation: RAT, LIVER, S-9, AROCLOR 1254, Method: STANDARD PLATE) is “inactive; negative”; the mutagenic call (Test System: AMES SALMONELLA TYPHIMURIUM, Strain/Indicator: TA1535, Metabolic Activation: RAT, LIVER, S-9, PHENOBARBITAL AND 5,6-BENZOFLAVONE, Method: PREINCUBATION) was “inactive; negative”; the mutagenic call (Test System: AMES SALMONELLA TYPHIMURIUM, Strain/Indicator: TA1537, Metabolic Activation: HAMSTER, LIVER, S-9, AROCLOR 1254, Method: STANDARD PLATE) was “inactive; negative”; the mutagenic call under setting [4] is “inactive; negative”; the mutagenic call (Test System: AMES SALMONELLA TYPHIMURIUM, Strain/Indicator: TA1537, Metabolic Activation: NONE, Method: STANDARD PLATE) was “inactive; negative”. Moreover, the mutagenic call (Test System: AMES SALMONELLA TYPHIMURIUM, Strain/Indicator: TA1537, Metabolic Activation: RAT, LIVER, S-9, AROCLOR 1254, Method: STANDARD PLATE) is “inactive; negative”; the mutagenic call (Test System: AMES SALMONELLA TYPHIMURIUM, Strain/Indicator: TA1537, Metabolic Activation: RAT, LIVER, S-9, PHENOBARBITAL AND 5,6-BENZOFLAVONE, Method: PREINCUBATION) is “inactive; negative”; the mutagenic call (Test System: AMES SALMONELLA TYPHIMURIUM, Strain/Indicator: TA1538, Metabolic Activation: HAMSTER, LIVER, S-9, AROCLOR 1254, Method: STANDARD PLATE) was “inactive; negative”; the mutagenic call (Test System: AMES SALMONELLA TYPHIMURIUM, Strain/Indicator: TA1538, Metabolic Activation: NONE, Method: PREINCUBATION) was “inactive; negative”; the mutagenic call (Test System: AMES SALMONELLA TYPHIMURIUM, Strain/Indicator: TA1538, Metabolic Activation: NONE, Method: STANDARD PLATE) was “inactive; negative”; the mutagenic call (Test System: AMES SALMONELLA TYPHIMURIUM, Strain/Indicator: TA1538, Metabolic Activation: RAT, LIVER, S-9, AROCLOR 1254, Method: STANDARD PLATE) is “inactive; negative”. Also, the mutagenic call is “inactive; negative” (Test System: AMES SALMONELLA TYPHIMURIUM, Strain/Indicator: TA1538, Metabolic Activation: RAT, LIVER, S-9, PHENOBARBITAL AND 5,6-BENZOFLAVONE, Method: PREINCUBATION); “inactive; negative” (Test System: AMES SALMONELLA TYPHIMURIUM, Strain/Indicator: TA2637, Metabolic Activation: NONE, Method: PREINCUBATION); “inactive; negative” (Test System: AMES SALMONELLA TYPHIMURIUM, Strain/Indicator: TA2637, Metabolic Activation: RAT, LIVER, S-9, PHENOBARBITAL AND 5,6-BENZOFLAVONE, Method: PREINCUBATION).

On to `Cc1ccc2ccc3cc4ccccc4cc3c2c1`, for which the mutagenic call is, setting by setting: (Test System: AMES SALMONELLA TYPHIMURIUM, Strain/Indicator: TA100, Metabolic Activation: RAT, INTACT HEPATOCYTES, AROCLOR 1254, Method: PREINCUBATION) “inactive; negative”; (Test System: AMES SALMONELLA TYPHIMURIUM, Strain/Indicator: TA100, Metabolic Activation: RAT, NADPH-FORTIFIED HOMOGENIZED HEPATOCYTES, AROCLOR 1254, Method: PREINCUBATION) “active; positive”; (Test System: AMES SALMONELLA TYPHIMURIUM, Strain/Indicator: TA100, Metabolic Activation: RAT, SONICATED HEPATOCYTES, AROCLOR 1254, Method: PREINCUBATION) “active; positive”.

For `FC(F)(F)C(Cl)Br` (stereo not given), the mutagenic call is “inactive; negative” (End Point: IN VITRO CHROMOSOMAL ABERRATIONS, Test System: CHINESE HAMSTER OVARY CELLS, Metabolic Activation: NONE); “inactive; negative” (End Point: IN VITRO CHROMOSOMAL ABERRATIONS, Test System: CHINESE HAMSTER OVARY CELLS, Metabolic Activation: RAT, LIVER, S-9, AROCLOR 1254); “inactive; negative” (Test System: AMES SALMONELLA TYPHIMURIUM, Strain/Indicator: TA98, Metabolic Activation: HAMSTER, LIVER, S-9, AROCLOR 1254 (10%), Method: PREINCUBATION); “inactive; negative” under setting [1]; “inactive; negative” (Test System: AMES SALMONELLA TYPHIMURIUM, Strain/Indicator: TA98, Metabolic Activation: RAT, LIVER, S-9, AROCLOR 1254 (10%), Method: PREINCUBATION); “inactive; negative” (Test System: AMES SALMONELLA TYPHIMURIUM, Strain/Indicator: TA100, Metabolic Activation: HAMSTER, LIVER, S-9, AROCLOR 1254 (10%), Method: PREINCUBATION). For the same compound, the mutagenic call was “inactive; negative” under setting [2]; “inactive; negative” (Test System: AMES SALMONELLA TYPHIMURIUM, Strain/Indicator: TA100, Metabolic Activation: RAT, LIVER, S-9, AROCLOR 1254 (10%), Method: PREINCUBATION); “inactive; negative” (Test System: AMES SALMONELLA TYPHIMURIUM, Strain/Indicator: TA1535, Metabolic Activation: HAMSTER, LIVER, S-9, AROCLOR 1254 (10%), Method: PREINCUBATION); “inactive; negative” under setting [3]; “inactive; negative” (Test System: AMES SALMONELLA TYPHIMURIUM, Strain/Indicator: TA1535, Metabolic Activation: RAT, LIVER, S-9, AROCLOR 1254 (10%), Method: PREINCUBATION); “inactive; negative” (Test System: AMES SALMONELLA TYPHIMURIUM, Strain/Indicator: TA1537, Metabolic Activation: HAMSTER, LIVER, S-9, AROCLOR 1254 (10%), Method: PREINCUBATION). The mutagenic call under setting [4] was “inactive; negative” and the mutagenic call (Test System: AMES SALMONELLA TYPHIMURIUM, Strain/Indicator: TA1537, Metabolic Activation: RAT, LIVER, S-9, AROCLOR 1254 (10%), Method: PREINCUBATION) is “inactive; negative”.

The values are drawn from PubChem BioAssay AID1259407 (Chemical Carcinogenesis Research Information System (CCRIS), 2018).
